Results on 16 molecules are retold here after patent US8815857B2 (Boehringer Ingelheim International GmbH, priority 2011, dated 2014).

In brackets after ≈: the same amount, converted by molar mass. Bounds are passed on as bounds.

Series [1] addresses T1, Recombinant human soluble guanylate cyclase (sGC), alpha 1 / beta 1 subunits, heme-free (Homo sapiens, UniProt Q02108+Q02153).
T1 construct: histidine tag (C); made in house; host or cells: Sf9 insect cells (baculovirus coinfection)
T1 sequence (Q02108 1-690 partner): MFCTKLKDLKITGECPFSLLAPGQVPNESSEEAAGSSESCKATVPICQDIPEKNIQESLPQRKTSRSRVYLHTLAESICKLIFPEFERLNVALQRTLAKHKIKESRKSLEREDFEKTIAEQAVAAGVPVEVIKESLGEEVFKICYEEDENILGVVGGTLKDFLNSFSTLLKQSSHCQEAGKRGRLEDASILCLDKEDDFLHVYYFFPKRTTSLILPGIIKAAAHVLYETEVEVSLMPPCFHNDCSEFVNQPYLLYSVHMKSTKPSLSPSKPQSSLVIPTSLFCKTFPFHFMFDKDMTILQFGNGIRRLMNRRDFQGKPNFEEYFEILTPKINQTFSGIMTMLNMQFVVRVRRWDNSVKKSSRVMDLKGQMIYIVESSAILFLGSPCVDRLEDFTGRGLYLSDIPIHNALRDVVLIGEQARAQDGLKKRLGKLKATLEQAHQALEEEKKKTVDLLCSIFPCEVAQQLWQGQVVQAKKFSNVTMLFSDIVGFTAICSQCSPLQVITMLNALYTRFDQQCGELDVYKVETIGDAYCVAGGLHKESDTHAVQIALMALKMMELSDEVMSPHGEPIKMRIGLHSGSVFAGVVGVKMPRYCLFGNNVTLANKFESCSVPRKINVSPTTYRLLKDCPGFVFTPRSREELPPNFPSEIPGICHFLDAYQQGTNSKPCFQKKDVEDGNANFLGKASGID
T1 sequence (Q02153 1-619): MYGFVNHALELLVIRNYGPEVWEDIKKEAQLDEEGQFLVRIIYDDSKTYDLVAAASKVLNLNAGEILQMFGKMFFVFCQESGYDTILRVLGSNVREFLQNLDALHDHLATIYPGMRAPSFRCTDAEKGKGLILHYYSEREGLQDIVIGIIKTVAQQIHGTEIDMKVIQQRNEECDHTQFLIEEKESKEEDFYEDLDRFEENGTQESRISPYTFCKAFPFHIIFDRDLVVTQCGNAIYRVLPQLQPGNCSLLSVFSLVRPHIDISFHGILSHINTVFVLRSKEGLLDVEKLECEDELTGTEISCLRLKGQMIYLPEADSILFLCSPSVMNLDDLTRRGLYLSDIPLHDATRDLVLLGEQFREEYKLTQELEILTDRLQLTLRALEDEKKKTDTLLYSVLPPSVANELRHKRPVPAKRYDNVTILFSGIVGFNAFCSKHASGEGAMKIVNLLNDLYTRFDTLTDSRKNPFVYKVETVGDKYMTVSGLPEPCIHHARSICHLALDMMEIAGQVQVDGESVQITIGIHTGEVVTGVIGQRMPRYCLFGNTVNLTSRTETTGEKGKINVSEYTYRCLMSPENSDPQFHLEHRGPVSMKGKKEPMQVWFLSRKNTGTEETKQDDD
Briefly: Molecular assay: cGMP formation by heme-free recombinant sGC (CisBio cGMP detection kit). Format: biochemical. The following applies: 300 pM heme-free sGC, 37° C., 60 min, cGMP readout; read-out: EC50 nM, Activity of Compounds in Molecular Assay. As to the method: Recombinant human soluble guanylate cyclase (sGC) is purified from Sf9 insect cells coinfected with baculoviruses expressing the alpha 1 or beta 1 subunit of sGC, both with a C-terminal histidine tag. Heme-free sGC is prepared by treating cell lysate with a final concentration of 0.5% Tween 20 prior to purification on a nickel affinity column.
sGC catalyzes the conversion of guanosine-5′-triphosphate (GTP) to cyclic guanosine monophosphate (cGMP). The activity of sGC is measured in vitro using the commercially available CisBio cGMP detection kit (catalog # 62GM2PEB) in a 384 well format. In brief, 300 pM heme-free sGC is incubated in reaction buffer (50 mM MOPS pH 6.8, 0.2 N KOH, 50 mM NaCl, 2 mM MgCl2, 0.1% BSA, 1.25 mM IBMX, 0.25 mM TCEP, 50 nM GTP) in the presence or absence of dilutions of test compounds diluted in DMSO (final concentration of 1%) in a volume of 10 microL at 37° C. for 60 min. Undiluted reaction products or an 80-fold dilution of reaction products (10 microL of either) prepared in reaction buffer containing 0.2 mM TCEP and 10 mM EDTA is mixed with 5 microL of d2-cGMP plus 5 microL of Eu^3+ cryptate-labeled anti-cGMP, each diluted in buffer containing 0.1 M KPO4 pH 7.5, 0.4 M KF, 20 mM EDTA, 0.2% BSA. After a one h incubation at room temperature in the dark, the mixtures are quantified on an EnVision plate reader (PerkinElmer) according to manufacturer instructions (laser excitation 337 nm, emission 620 and 665 nm). The ratio at each compound concentration is converted to nM cGMP using the linear portion of a calibration curve. Log compound concentration is plotted against combined undiluted and diluted nM cGMP values to determine the EC50 for each curve.

The nature of series [2]: Assessment of solubility: HT solubility in pION buffer, UV spectrophotometry. Particulars: 16-19 h incubation, 1.0% DMSO; for solubility: pION system solution buffer, kinetic from dmso stock.
[3] abbreviates: pH 7.4, pH 7.4, aqueous buffer, Solubility (pH 7.4), pH 7.4 buffer.
Setting [4] is: pH 4.5, pH 4.5, aqueous buffer, Solubility (pH 4.5), pH 4.5 buffer.

As for `Cc1cc(C(=O)N2CCCCC2)ccc1COc1ccc(Cl)cc1-c1csc(N2CCC(C(=O)O)C(C(F)(F)F)C2)n1` (stereo not drawn) [Compound 149], the half-maximal effective concentration (EC50) (usually the concentration at which the effect is half-maximal) in series [1] is 380 nM. Also, the “Solubility (pH 4.5)” value in series [2] (pH 4.5 buffer) is given as 0.1 μg/mL. For the same molecule, the solubility (usually the dissolved amount per volume that the medium holds) in series [2] (setting [3]) is > 62 µg/mL.
Consider `Cc1cc(CN2CCOCC2)ccc1COc1ccc(Cl)cc1-c1csc(N2C3CCC2CC(C(=O)O)C3)n1` (stereo not drawn) [Compound 100], for which the EC50 in series [1] turned out to be 440 nM. Further, the solubility is 20 µg/mL (≈ 35.2 µM) in series [2] (setting [4]) and 27 µg/mL (≈ 47.5 µM) in series [2] (setting [3]).
On the same counts, the results for `Cc1cc(CN2CCOCC2)ccc1COc1ccc(F)cc1-c1csc(N2CCC(C(=O)O)CC2C)n1` (stereo not drawn) [Compound 61] are 440 nM, 44 µg/mL (≈ 81.5 µM) and > 61 µg/mL.
For `Cc1ccc(OCc2ccc(C(=O)N3CCCCC3)cc2C)c(-c2csc(N3CCC(C(=O)O)CC3C(F)(F)F)n2)c1` (stereo not drawn) [Compound 141], the EC50 in series [1] worked out at 3.9 nM. For the same molecule, the results for the solubility in series [2] (setting [4]) and in series [2] (setting [3]) were 0.2 µg/mL (≈ 0.332 µM) and > 60 µg/mL, respectively.
Regarding `Cc1cc(CN2CCC(C(=O)N(C)C)CC2)ccc1COc1c(C)cccc1-c1csc(N2CCC(C(=O)O)CC2)n1` [Compound 134], the half-maximal effective concentration (EC50) in series [1] was determined as 1800 nM. The solubility in series [2] (setting [4]) and in series [2] (setting [3]) was > 68 µg/mL each time.
Turning to `Cc1cc(C(=O)N2CCCCC2)ccc1COc1ccc(Cl)cc1-c1csc(N2C3CCC2CC(C(=O)O)C3)n1` (stereo not drawn) [Compound 117], in series [1], the EC50 was 30 nM. The values for the solubility in series [2] (setting [4]) and in series [2] (setting [3]) were 0.25 µg/mL (≈ 0.431 µM) and > 57 µg/mL, respectively.
Consider `Cc1cc(CN2CCS(=O)(=O)CC2)ccc1COc1ccccc1-c1csc(N2CCC(C(=O)O)CC2C)n1` (stereo not drawn) [Compound 108], for which the EC50 in series [1] was found to be 100 nM. Moreover, the solubility was 2.3 µg/mL (≈ 4.04 µM) in series [2] (setting [4]) and > 56 µg/mL in series [2] (setting [3]).
The like results for `Cc1cc(CN2CCS(=O)(=O)CC2)ccc1COc1ccccc1-c1csc(N2CCC(C(=O)O)CC2C(F)(F)F)n1` (stereo not drawn) [Compound 152] were, in that order, 170 nM, 0.3 µg/mL (≈ 0.481 µM) and > 62 µg/mL.
On the same counts, the results for `Cc1ccc(OCc2ccc(CN3CCOCC3)cc2C)c(-c2csc(N3CC(C(=O)O)C3)n2)c1` [Compound 215] are 1000 nM, > 60 µg/mL and > 60 µg/mL.
On the same counts, the results for `Cc1cc(C(=O)N2CCCCC2)ccc1COc1ccccc1-c1csc(N2CCC(C(=O)O)CC2C)n1` (stereo not drawn) [Compound 41] are 70 nM, 1.1 µg/mL (≈ 2.06 µM) and > 53 µg/mL.
Turning to `Cc1ccc(OCc2ccc(CN3CCN(C(=O)C4CCOC4)CC3)cc2C)c(-c2csc(N3CCC(C(=O)O)CC3)n2)c1` (stereo not drawn) [Compound 197], the EC50 in series [1] came out at 230 nM. The solubility in series [2] (setting [4]) is 51 µg/mL (≈ 82.4 µM); in series [2] (setting [3]) it was > 71 µg/mL.
On the same counts, the results for `Cc1ccc(OCc2ccc(C(=O)N3CCCCC3)cc2C)c(-c2csc(N3C4CCC3CC(C(=O)O)C4)n2)c1` (stereo not drawn) [Compound 88] are 15 nM, 0.45 µg/mL (≈ 0.804 µM) and > 55 µg/mL.
The like results for `Cc1ccc(OCc2ccc(CN3CCOCC3)cc2C)c(-c2csc(N3CCC(C(=O)O)C3)n2)c1` (stereo not drawn) [Compound 6] were, in that order, 610 nM, > 62 µg/mL and > 62 µg/mL.
The like results for `Cc1ccc(OCc2ccc(CN3CCOCC3)cc2C)c(-c2csc(N3CCC(C(=O)O)CC3)n2)c1` [Compound 20, 1-{4-[5-methyl-2-(2-methyl-4-morpholin-4-ylmethyl-benzyloxy)-phenyl]-thiazol-2-yl}-piperidine-4-carboxylic acid] were, in that order, 140 nM, 33 µg/mL (≈ 63.3 µM) and 36 µg/mL (≈ 69 µM).
For the molecule `Cc1cc(CN2CCS(=O)(=O)CC2)ccc1COc1ccccc1-c1csc(N2CC3C(C2)C3C(=O)O)n1` (stereo not drawn) [Compound 82], the half-maximal effective concentration (EC50) in series [1] is 3100 nM. Also, the solubility in series [2] (setting [4]) is 12 µg/mL (≈ 21.7 µM); in series [2] (setting [3]) it was > 55 µg/mL.
The like results for `Cc1cc(CN2CCS(=O)(=O)CC2)ccc1COc1ccc(C#N)cc1-c1csc(N2CC3CCC(C2)C3C(=O)O)n1` (stereo not drawn) [Compound 146] were, in that order, 2000 nM, 0.75 µg/mL (≈ 1.24 µM) and > 60 µg/mL.
